pEC50: −log10 of the molar value. Like-named read-outs stand apart in the source and are kept apart here.
Columns and labels:
[1] = target: T1, parathyroid cell Ca^2+ receptor (Bos taurus, UniProt P35384); assay type: cell-based, bovine; conditions: for effect on [Ca2+]i: tested at concentrations of 100 to 300 µM
T1 sequence (P35384 20-1085): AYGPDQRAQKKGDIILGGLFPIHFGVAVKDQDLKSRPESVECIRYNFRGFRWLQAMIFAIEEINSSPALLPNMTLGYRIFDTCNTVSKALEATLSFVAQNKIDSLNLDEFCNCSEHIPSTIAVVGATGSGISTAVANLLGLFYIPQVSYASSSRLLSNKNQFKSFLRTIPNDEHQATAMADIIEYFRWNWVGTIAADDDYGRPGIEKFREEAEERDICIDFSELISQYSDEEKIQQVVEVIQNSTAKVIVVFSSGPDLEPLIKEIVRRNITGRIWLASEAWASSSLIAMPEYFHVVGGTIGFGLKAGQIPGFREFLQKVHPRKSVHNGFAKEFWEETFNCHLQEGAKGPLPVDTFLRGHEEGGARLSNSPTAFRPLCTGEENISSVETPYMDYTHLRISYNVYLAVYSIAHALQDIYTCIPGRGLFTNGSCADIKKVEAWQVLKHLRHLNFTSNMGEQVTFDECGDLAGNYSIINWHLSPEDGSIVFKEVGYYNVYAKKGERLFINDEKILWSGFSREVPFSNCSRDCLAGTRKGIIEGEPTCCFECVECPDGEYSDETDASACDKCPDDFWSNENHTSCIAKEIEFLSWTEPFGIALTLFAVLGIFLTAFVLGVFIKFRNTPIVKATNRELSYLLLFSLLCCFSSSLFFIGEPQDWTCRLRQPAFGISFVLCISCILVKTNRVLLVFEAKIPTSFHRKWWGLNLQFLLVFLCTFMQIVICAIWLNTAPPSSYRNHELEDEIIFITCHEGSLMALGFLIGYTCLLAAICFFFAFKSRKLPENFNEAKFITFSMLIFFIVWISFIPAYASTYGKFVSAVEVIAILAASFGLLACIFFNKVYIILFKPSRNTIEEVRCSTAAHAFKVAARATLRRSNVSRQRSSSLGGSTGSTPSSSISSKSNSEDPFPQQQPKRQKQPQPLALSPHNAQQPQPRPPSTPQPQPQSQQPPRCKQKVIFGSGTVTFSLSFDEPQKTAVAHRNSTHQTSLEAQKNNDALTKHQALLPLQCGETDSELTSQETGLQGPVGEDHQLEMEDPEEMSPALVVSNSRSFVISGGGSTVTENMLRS

[2] = Net positive charge of the molecule; assay type: physicochemical; conditions: Table 1; effective charge at physiological pH
[3] = system: osteoclast Ca^2+ receptor; assay: [Ca2+]i (indo-1) in single rat osteoclasts; assay type: cell-based; conditions: for increase in [Ca2+]i in osteoclasts: screening, small responses were detected
[4] = Serum or whole blood ionized Ca2+ and PTH in rats in vivo; parameters: species or system Sprague-Dawley rats
Text: Male Sprague-Dawley rates (200 g) were maintained on a low calcium diet for one week prior to receiving test substance or vehicle as control. Blood was collected from the tail vein three hours after the intra-peritoneal administration of NPS 467. […]

[5] = Table 1, mobilization of intracellular Ca2+ in parathyroid cells, read-out: EC50
[6] = Table 6, rat osteoclasts, indo-1, inactive = no increase in cytosolic Ca2+ at 1-5 mM
[7] = read-out: EC50 for the mobilization of intracellular Ca2+, […]

NC(=O)C[C@H](NC(=O)Cc1ccc(O)cc1O)C(=O)NCCCCCNCCCNCCCNC(=O)[C@@H](N)CCCN=C(N)N [argiotoxin 636]
effect on [Ca2+]i [1]: without effect

[H]/N=C(/N)N[C@H]1[C@H](O)[C@@H](O)[C@H](O[C@@H]2O[C@@H](C)[C@](O)(C=O)[C@H]2O[C@@H]2O[C@@H](CO)[C@H](O)[C@@H](O)[C@@H]2NC)[C@@H](N/C(N)=N\[H])[C@@H]1O [streptomycin]
pEC50 [1, 5]: 3.22
pEC50 ([1]; […]): 3.22
Net (+) Charge [2]: +3

NCCCNCCCCNCCCNCCCN(O)CCCNC(=O)Cc1c[nH]c2ccccc12 [NPS 017]
EC50(µM) OSTEOCLAST [3, 6]: inactive

COc1cccc(C(C)NCCCc2ccccc2Cl)c1 (racemic) [NPS 568]
pEC50 [1, 7]: > 5.30

NCCCN(CCCN)CCCN(CCCN)CCCCN(CCCN)CCCN(CCCN)CCCN [NPS 381, N^1,N^1,N^5,N^10,N^14,N^14-hexakis-(3-aminopropyl) spermine]
Net (+) Charge [2]: +10

NCCCCCCCCCCCCN [1,12-diaminododecane (DADD), 1,12-diaminododecane]
pEC50 ([1]; read-out: EC50): 2.52
Net (+) Charge [2]: +2

NC(=O)C[C@H](NC(=O)Cc1c[nH]c2cccc(O)c12)C(=O)NCCCCCNCCCNCCCNC(=O)[C@@H](N)CCCN=C(N)N [Argiotoxin 659]
effect on [Ca2+]i [1]: evoked transient increases in [Ca^2+]i
Net (+) Charge [2]: +4

NC[C@H]1O[C@H](O[C@H]2[C@H](O)[C@@H](O[C@H]3O[C@H](CO)[C@@H](O)[C@H](N)[C@H]3O)[C@H](N)C[C@@H]2N)[C@H](N)[C@@H](O)[C@@H]1O [bekanamycin]
pEC50 [1, 5]: 3.70
pEC50 ([1]; […]): 3.70
Net (+) Charge [2]: +5

CCC[C@@H]1C[C@@H](C(=O)N[C@@H]([C@H]2O[C@H](SC)[C@H](O)[C@@H](O)[C@H]2O)[C@@H](C)O)N(C)C1 [lincomycin]
effect on cytosolic Ca2+ transients ([1]; tested at a concentration of 500 µM): without effect

NCCCN1CCCN(CCCN)CCN(CCCN)CCCN(CCCN)CC1 [NPS 383]
Net (+) Charge [2]: +8

NCCNCCNCCN [triethylenetetramine]
Net (+) Charge [2]: +4

NCCCNCCCCNCCCNCCCNCCCNC(=O)Cc1c[nH]c2ccccc12 [NPS 019]
EC50 [3, 6]: > 300 µM

COc1ccc(CCN(C)CCCC(C#N)(c2ccc(OC)c(OC)c2)C(C)C)cc1OC (centres unmarked) [verapamil]
increase in [Ca2+]i in osteoclasts [3]: none of these caused any large increase in [Ca^2+]i
increase in [Ca2+]i ([3]; verapamil 100 µM): no detectable increase in [Ca^2+]i

NCCCCNCCCN [spermidine]
increase in [Ca2+]i, % of that evoked by a maximal concentration of extracellular Ca2+ ([3]; concentration of 1 mM): about 10%
increase in [Ca2+]i in osteoclasts [3]: none of these caused any large increase in [Ca^2+]i
pEC50 [1]: 2.70
Net (+) Charge [2]: +3

gentamicin
Net (+) Charge [2]: +5

NCCNCCNCCNCCN [tetraethylenepentamine]
Net (+) Charge [2]: +5

COc1cccc(C(C)NCCCc2ccccc2)c1 (racemic) [NPS 467]
time course of the hypocalcemic effect ([4]; Fig. 40 (25 mg/kg)): maximal within three hours and returned toward control levels after 24 hours
serum albumin or phosphate levels ([4]; any of the doses examined): no change in serum albumin or phosphate levels
serum or whole blood Ca2+ ([4]; low calcium diet, three hours after intra-peritoneal administration, Fig. 38): dose-dependent reduction in serum or whole blood Ca^2+
serum ionized calcium after oral administration ([4]; oral, dose-response curve, Fig. 44): lowers serum ionized calcium in rats when administered orally
circulating levels of PTH ([4]; preliminary studies, doses effective in lowering blood Ca2+, Fig. 39): dose-dependent reduction in circulating levels of PTH
pEC50 [1, 7]: > 5.30

From EP0637237B1, “CALCIUM RECEPTOR-ACTIVE MOLECULES” (BRIGHAM AND WOMEN'S HOSPITAL, INC., priority 1993, dated 1994)
